{
  "source": "patent US20180104336A1",
  "about": "“Method of Increasing Radiation Sensitivity of Tumor Cells” (priority 2016, published 2018)",
  "key": {"A549 cells [1]": {"tested_on": "A549 cells", "test": "GLS inhibition experiment, bright field images of cell death", "assay_type": "cell-based, human", "conditions": "10, 20, 40 and 100 μM, 48 hrs", "description": "(§1) GLS inhibition experiments: In the mechanistic experiments with BPTES or CB-839, cells (7500) were seeded (Time—24 hrs) into 96-well plates containing 100 μl complete medium, and allowed to attach for 24 hrs. Complete medium was added (Time 0 hrs) containing various concentrations of GLS inhibitors to give the final concentrations of 0.001 to 100 μM. Media aliquots of 25 μl were removed from each well at 24, 36, and 48 hrs to monitor the time course of metabolite consumption and production (metabolomic footprint). Cells were maintained at 37° C., 5% CO2 and 40% humidity until time of harvest. Cell viability was determined using Cell Glow, Cell TOX or MTT assays according to manufacture descriptions."}, "H460 cells [2]": {"tested_on": "H460 cells", "test": "GLS inhibition experiment, bright field images of cell death", "assay_type": "cell-based, human", "conditions": "10, 20, 40 and 100 μM, 48 hrs", "description": "as §1"}, "A549 cells [3]": {"tested_on": "A549 cells", "test": "Radiation sensitivity by clonogenic assay", "assay_type": "cell-based, human", "conditions": "2 μM BPTES 24 h, 4 Gy and 8 Gy, p<0.001", "description": "(§2) Radiation exposure of lung tumor cell lines: Radiation sensitivity was determined by methods described previously. In brief, for colony formation, A549 and H460 cells were seeded in 6-well plates containing 3 ml standard complete medium and allowed to attach for 24 h. Media were changed and cells were grown for another 24 h in standard medium, glutamine-free medium, medium containing 2 μM BPTES (to deplete glutathione), and medium containing only the vehicle. Cells were subsequently radiated using a Faxitron X-ray Generating System (CP-160, Faxitron X-Ray Corp., Wheeling, Ill.). Single-doses of 4 or 8 Gy (Gray) were delivered at a dose rate of 1 Gy/min (150 kVp and 6.6 mA). Cells were then placed in standard complete RPMI medium and allowed to form colonies for 8 days. The surviving colonies (containing >˜50 cells) were stained and counted on a stereomicroscope. Plating efficiency (PE) of cells with each treatment were determined and normalized to that of control untreated cells and the surviving fractions were calculated by dividing the PE of the treated cells by the PE of the control untreated cells."}, "H460 cells [4]": {"tested_on": "H460 cells", "test": "Radiation sensitivity by clonogenic assay", "assay_type": "cell-based, human", "conditions": "2 μM BPTES 24 h, 4 Gy and 8 Gy, p<0.001", "description": "as §2"}, "A549 cells [5]": {"tested_on": "A549 cells", "test": "GSHE experiment: cell viability and toxicity with 10 μM BPTES", "description": "(§3) [^13C5]-glutamine experiments: To determine the fraction of glutathione that is derived directly from glutamine, A549 and H460 cell lines were cultured in 96-well plates in glutamine-free medium supplemented with 0.3 g/L [^13C5]-glutamine. Cell media aliquots were harvested at 12, 24, 36, and 48 hrs. Light microscopy was used at 12 hours to visualize the cells at each dosage. After 48 hours the CellTiter 96, CellTiter-Glo® 2.0, and CellTox™ Green Cytotoxicity assays, (Promega, Madison, Wis.) were utilized to respectively assess cell proliferation, cell viability, and cell death of both the BPTES and [^13C5]-glutamine experiments.\n(§4) Glutathione-monoethyl ester (GSHE) experiments: Cells (7500) were seeded into 96 well plates containing 100 μl complete media. Cells were treated with 10 μM BPTES in DMSO and 0, 1, 5 and 10 mM GSHE. After 48 hrs cells were harvested and cell viability and toxicity were assessed as described above."}, "H460 cells [6]": {"tested_on": "H460 cells", "test": "GSHE experiment: cell viability and toxicity with 10 μM BPTES", "description": "as §3, §4"}, "[7]": {"tested_on": "H460 and A549 lung tumor cells", "assay_type": "cell-based", "conditions": "for cell proliferation and viability: FIG. 4 and FIG. 8", "description": "Media aliquots of 25 μl were removed from each well at 24, 36, and 48 hrs to monitor the time course of metabolite consumption and production (metabolomic footprint). Cells were maintained at 37° C., 5% CO2 and 40% humidity until time of harvest. Cell viability was determined using Cell Glow, Cell TOX or MTT assays according to manufacture descriptions.\nCells were seed in 6-well and allowed to attach for 1 day.\nas §3, §2"}, "[8]": {"tested_on": "H460 and A549 lung tumor cells", "test": "Glutathione synthesis and excretion after GLS inhibition, cell lines not separated", "assay_type": "cell-based, human", "conditions": "for fold more effective in depletion of glutathione: compared with 100 to 10,000 μM buthionine sulfoximine reported previously; for glutathione synthesis and excretion: in vitro", "description": "as §1, with “Complete medium was added (Time 0 hrs) containing various concentrations of GLS inhibitors to give the final concentrations of 0.001 to 100 μM.” left out\nLC-MS quantitation by liquid chromatography tandem mass spectrometry (LC-MS/MS): Metabolites were extracted from cell pellets by the addition of 3 ml of 50% methanol/0.2% formic acid to the frozen cells in the culture flasks. Cells were scraped from the culture flasks and transferred to 15 ml tubes. Proteins were precipitated from 750 μl cell pellet suspensions by addition of 1050 μl acetonitrile/0.2% formic acid. Metabolites were extracted from 25 or 100 μl culture media from 96 well plates or 25-T flasks, respectively, and with the respective addition of 275 μl or 1300 μl of 40% methanol/60% acetonitrile/0.2% formic acid. Cell pellets or media suspensions were incubated on ice for 30 min, followed by centrifugation for 10 min at 13000 g. Supernatants were transferred to new vials, solvents were removed in a speed vac and the concentrated metabolites stored at -80° C. until analysis.\nSamples were reconstituted in 0.2% formic acid and analyzed by LC-MS/MS (Agilent, 1290 Infinity LC coupled to an Agilent 6490 triple quadrupole mass analyzer). An Agilent Poroshell 2.7 μm C18 (2.1 mm×100 mm) column was operated with a linear gradient from 2% Methanol/0.01% formic acid to 95% Methanol/0.01% formic acid in 10 min. Individual metabolites were monitored in multiple reactions monitoring mode, monitoring specific ion transitions shown in Table 1. The specific ion transitions and retention times for each metabolite were established experimentally using commercially available standard compounds. Quantitation of the individual metabolites were based on external calibration curves that were generated with each set of samples. In the stable isotope tracing experiment, ^13C5-incorporation into subsequent metabolites was determined by monitoring the corresponding m/z ion transitions (Table 1)."}, "H460 cell-derived tumors": {"tested_on": "H460 cell-derived tumors", "test": "H460 mouse xenograft, tumor volume with and without radiation", "assay_type": "in vivo, nude mice", "source_text": "METHOD: Mouse xenograft experiments. For the first in vivo study, H460 cell-derived tumors were engrafted on the hind flank of 20 male. […] (1) control (2) CB-839, (3) 18 Gy radiation and (4) CB-839 plus 18 Gy radiation. For the second in vivo experiment, H460 cell-derived tumors were engrafted on the hind flank of 50 female nude mice. […] (1) Vehicle only, (2) 2 Gy radiation, (3) 4 Gy radiation, (4) 8 Gy radiation, (5) 12 Gy radiation, (6) Vehicle only plus CB-839, (7) 2 Gy radiation plus CB-839, (8) 4 Gy radiation plus CB-839, (9) […], (10) 12 Gy radiation plus CB-839. CB-839 was given three times at 20 mg/kg by oral gavage at 28, 16 and 4 hrs prior to a single dose of 18 Gy radiation. CB-839 was administered by oral gavage as solution of 200 mg/kg CB-839 in 200 ul 25% (w/v) hydroxypropyl-b-cyclodextrin in 10 mmol/[…], pH 2 or 25% (w/v) hydroxypropyl- b-cyclodextrin in 10 mmol/L citrate, pH 2. Thirty minutes prior to radiation treatment, 50 μl blood was taken form tail vein and serum was analyzed for reduced and oxidized GSH by LC-MS. Radiation was given as a single 1Gy/min dose for 2, 4, 8, 12, or 18 min respectively. Tumor volume measurements were repeated at the indicated days until termination of the animals. Tumor volume was computed by multiplying “a” times (“a” X “b”)/2. The “Mean tumor volumes” and “Relative tumor volume” for male and female mice are graphed in FIGS. 9A-B and FIGS. 10A-F, respectively."}, "[9]": {"tested_on": "total glutathione in serum", "test": "Total glutathione (reduced plus oxidized) in serum by LC-MS at day of radiation", "assay_type": "in vivo, nude mice", "description": "CB-839 was given three times at 20 mg/kg by oral gavage at 28, 16 and 4 hrs prior to a single dose of 18 Gy radiation. CB-839 was administered by oral gavage as solution of 200 mg/kg CB-839 in 200 ul 25% (w/v) hydroxypropyl-b-cyclodextrin in 10 mmol/Lcitrate, pH 2 or 25% (w/v) hydroxypropyl- b-cyclodextrin in 10 mmol/L citrate, pH 2. Thirty minutes prior to radiation treatment, 50 μl blood was taken form tail vein and serum was analyzed for reduced and oxidized GSH by LC-MS. Radiation was given as a single 1Gy/min dose for 2, 4, 8, 12, or 18 min respectively. Tumor volume measurements were repeated at the indicated days until termination of the animals. Tumor volume was computed by multiplying “a” times (“a” X “b”)/2. The “Mean tumor volumes” and “Relative tumor volume” for male and female mice are graphed in FIGS. 9A-B and FIGS. 10A-F, respectively."}, "[10]": {"conditions": "male nude mice, day #17, CB-839 20 mg/kg oral gavage 28, 16 and 4 hrs before 18 Gy"}},
  "note": "“Also recorded” adds a separate entry of the source.",
  "data": [
    {"smiles": "O=C(Cc1ccccc1)Nc1nnc(CCSCCc2nnc(NC(=O)Cc3ccccc3)s2)s1", "note": "[BPTES, Bis-2-(5-phenyl-acetamido-1,3,4-thiadiazol-2-yl) ethyl sulfide]", "values": [
      {"measurement": "cell death, visual", "setting": "A549 cells [1]", "value": "visual increase in cell death"},
      {"measurement": "cell death, visual", "setting": "H460 cells [2]", "value": "visual increase in cell death"},
      {"measurement": "radiation response, colony formation compared to control cells", "setting": "A549 cells [3]", "value": "radiation-induced reduction in colony formation"},
      {"measurement": "radiation response, colony formation compared to control cells", "setting": "H460 cells [4]", "value": "radiation-induced reduction in colony formation"},
      {"measurement": "cell viability", "setting": "A549 cells [5]; 10 μM BPTES, 48 hrs", "value": "reduced viability"},
      {"measurement": "cell viability", "setting": "H460 cells [6]; 10 μM BPTES, 48 hrs", "value": "reduced viability"},
      {"measurement": "cell proliferation and viability", "setting": "[7]", "value": "reduced cell proliferation and viability"},
      {"measurement": "cell growth", "setting": "[7]; FIGS. 4A-4C", "value": "significant growth inhibition"},
      {"measurement": "concentration at which glutathione excretion was essentially abolished", "setting": "[8]; FIG. 4, H460 and A549", "value": "> 5", "unit": "µM"},
      {"measurement": "fold more effective in depletion of glutathione", "setting": "[8]", "value": "≥ 100", "unit": "fold"},
      {"measurement": "glutathione synthesis and excretion", "setting": "[8]", "value": "abolished glutathione excretion"}
    ]},
    {"smiles": "O=C(Cc1cccc(OC(F)(F)F)c1)Nc1ccc(CCCCc2nnc(NC(=O)Cc3ccccn3)s2)nn1", "note": "[CB-839]", "values": [
      {"measurement": "response to radiation treatment improved, based on tumor volume over time", "setting": "H460 cell-derived tumors; H460 xenograft, short term (3 times) CB-839", "value": "more than 25%"},
      {"measurement": "efficacy of short term CB-839 alone", "setting": "H460 cell-derived tumors; H460 xenograft, short term (3 times) CB-839, no radiation", "value": "does not show efficacy"},
      {"measurement": "tumor growth, CB-839 alone", "setting": "H460 cell-derived tumors; female nude mice, 3 doses orally every 12 hrs", "value": "did not affect the tumor growth"},
      {"measurement": "accelerated tumor growth caused by 2 Gy radiation", "setting": "H460 cell-derived tumors; female nude mice, CB-839 plus 2 Gy", "value": "prevented"},
      {"measurement": "mean tumor size smaller, CB-839 plus radiation compared to CB-839 alone", "setting": "H460 cell-derived tumors; [10]", "value": 90, "unit": "%"},
      {"measurement": "mean tumor size smaller, CB-839 plus radiation compared to radiation alone", "setting": "H460 cell-derived tumors; [10]", "value": 20, "unit": "%"},
      {"measurement": "tumor growth, CB-839 alone compared to control", "setting": "H460 cell-derived tumors; male nude mice, three CB-839 treatments", "value": "did not affect subsequent tumor growth"},
      {"measurement": "total glutathione in blood lower", "setting": "[9]; female nude mice, time of radiation, three doses of 200 mg/Kg/bw at 28, 16 and 4 hrs earlier", "value": 53, "unit": "%"},
      {"measurement": "serum glutathione reduced", "setting": "[9]; in vivo, short term treatment", "value": "> 50", "unit": "%"},
      {"measurement": "total GSH in serum lower compared to none treated mice", "setting": "[9]; male nude mice, day #12 prior to radiation, CB-839 three times", "value": 56, "unit": "%"},
      {"measurement": "cell proliferation and viability", "setting": "[7]", "value": "reduced cell proliferation and viability"},
      {"measurement": "sensitivity to ionizing radiation in vitro", "setting": "[7]; in vitro", "value": "increase sensitivity to ionizing radiation"},
      {"measurement": "fold more effective in depletion of glutathione", "setting": "[8]", "value": "at least 1000 fold"},
      {"measurement": "glutathione synthesis and excretion", "setting": "[8]", "value": "successfully depletes glutathione synthesis and excretion; also recorded: abolished glutathione excretion"}
    ]},
    {"smiles": "CCOC(=O)CNC(=O)[C@H](CS)NC(=O)CC[C@H](N)C(=O)O", "note": "[GSHE, Glutathione-monoethyl ester]", "values": [
      {"measurement": "protection against BPTES-induced cytotoxicity", "setting": "A549 cells [5]; 1-10 mM GSHE with 10 μM BPTES", "value": "dose-dependent protection"},
      {"measurement": "protection against BPTES-induced cytotoxicity", "setting": "H460 cells [6]; 1-10 mM GSHE with 10 μM BPTES", "value": "dose-dependent protection"}
    ]}
  ]
}
